Legend:
[1] = target: T1, Plasmodium falciparum calcium-dependent protein kinase 1 (CDPK1) (Plasmodium falciparum, UniProt P62344); assay: CDPK1 Kinase-Glo ATP-consumption screen and dose-response; assay type: biochemical; conditions: hits below 1 uM; read-out: CDPK1 IC50
T1 construct: 6-Histidine (N); made in house
Description: Biochemical assays were performed in white 384-well plates (Nunc). Liquid transfers were done manually with 8-channel pipets. Compounds were initially tested in a single-point screen (final concentration 1 μM). […] The catalytic activity of each kinase was considered proportional to ATP consumed, as determined from measurements of residual [ATP] with the luciferase-based reagent Kinase-Glo (Promega) following incubation. Luminescence (proportional to residual [ATP]) was measured on the plate readers FLx800 (BioTek Instruments, Winooski, VT, USA) and MicroBeta^2 (PerkinElmer, Waltham, MA, USA). Incubation times were chosen to ensure near-complete ATP depletion in the absence of inhibition, thus maximizing the difference in signal between inhibited and uninhibited wells.
40 μM Syntide-2 was used as a substrate; BKI-1 [14] was used as a control inhibitor, while reaction mixtures lacking Syntide-2 were included as an additional negative control. Incubation time was 90 minutes. Reactions were terminated by adding excess EGTA (5 mM), which sequesters Ca^2+ and halts calcium-dependent kinase activity.

P. falciparum 3D7 cells = conditions: 3D7; downloaded from ChEMBL; ref F.J. Gamo et al., Nature 2010; cited from earlier work
DD2 = tested on: DD2; parameters: method as in F.J. Gamo et al., Nature 2010; conditions: downloaded from ChEMBL, ref F.J. Gamo et al., Nature 2010; cited from earlier work
3D7 PFLDH = tested on: 3D7 PFLDH; parameters: method as in F.J. Gamo et al., Nature 2010; concentration or dose not given beside the values; conditions: downloaded from ChEMBL, ref F.J. Gamo et al., Nature 2010; cited from earlier work
HepG2 cells = conditions: HepG2; downloaded from ChEMBL; ref F.J. Gamo et al., Nature 2010; cited from earlier work

T1 sequence (P62344 whole entry): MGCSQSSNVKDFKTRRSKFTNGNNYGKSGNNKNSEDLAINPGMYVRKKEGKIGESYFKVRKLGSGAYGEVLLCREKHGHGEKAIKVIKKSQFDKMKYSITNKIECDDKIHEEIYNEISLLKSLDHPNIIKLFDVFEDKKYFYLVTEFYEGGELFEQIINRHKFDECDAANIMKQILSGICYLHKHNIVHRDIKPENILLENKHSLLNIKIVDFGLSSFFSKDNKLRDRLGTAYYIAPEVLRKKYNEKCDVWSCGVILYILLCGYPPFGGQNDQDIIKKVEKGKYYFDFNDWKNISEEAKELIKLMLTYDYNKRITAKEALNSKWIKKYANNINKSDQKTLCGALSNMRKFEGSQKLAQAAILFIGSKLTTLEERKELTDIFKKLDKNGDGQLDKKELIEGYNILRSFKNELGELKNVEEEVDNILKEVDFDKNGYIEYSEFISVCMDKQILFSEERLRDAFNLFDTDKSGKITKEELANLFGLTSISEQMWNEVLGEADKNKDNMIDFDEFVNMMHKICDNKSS

IC50 [1] [nM]	Structure (SMILES)	PCT_IHB_3D7 (P. falciparum 3D7 cells) [%]	pXC50_3D7 (P. falciparum 3D7 cells)	PCT_INHB_DD2 (DD2) [%]	PCT_INHIB_3D7_PFLDH (3D7 PFLDH) [%]	PCT_INHIB_HEPG2 (HepG2 cells) [%]
246	CNC(=O)c1ccccc1Nc1nc(Nc2ccc(C(=O)O)cc2)ncc1Cl.Cl [TCMDC-133803]	92	6.022	92	0	60
114	Cn1c(Nc2cc(C(C)(C)C)on2)nc2cc(Nc3ccnc(Nc4cccc(CS(C)(=O)=O)c4)n3)ccc21 [TCMDC-141893]	99	6.243	94	0	63
103	O=C(NCCN1CCCCC1)c1ccc(Nc2nccc(Nc3ccc(Oc4ccccc4)cc3)n2)cc1 [TCMDC-138608]	100	6.257	91	0	58
336	CCCN1CCN(CCNC(=O)c2cccc(Nc3nccc(Nc4ccc(Oc5ccccc5)cc4)n3)c2)CC1 [TCMDC-138606]	99	6.622	96	0	56
701	Cl.c1ccc(Oc2ccc(Nc3ccnc(Nc4ccc(OCCN5CCCCC5)cc4)n3)cc2)cc1 [TCMDC-138583]	97	6.219	66	0	23
425	CC(=O)Nc1cccc(Nc2nccc(Nc3ccc(Oc4ccccc4)cc3)n2)c1.Cl [TCMDC-138590]	100	6.128	99	0	15
213	O=C(NCCN1CCCC1)c1cccc(Nc2nccc(Nc3ccc(Oc4ccccc4)cc3)n2)c1 [TCMDC-138602]	100	6.184	18	0	33
261	CN1CCN(CCCNCc2cccc(Nc3nccc(Nc4ccc(Oc5ccccc5)cc4)n3)c2)CC1 [TCMDC-138616]	100	6.117	80	0	97
186	NC(=O)c1ccccc1Nc1nc(Nc2cc[nH]n2)ncc1Cl [TCMDC-134169]	96	6.019	93	0	67
135	O=C(NCCN1CCC(c2ccncc2)CC1)c1ccc(Nc2nccc(Nc3ccc(Oc4ccccc4)cc3)n2)cc1 [TCMDC-138610]	100	6.14	90	1	17
139	CN1CCN(CCCNCc2ccc(Nc3nccc(Nc4ccc(Oc5ccccc5)cc4)n3)cc2)CC1 [TCMDC-138621]	100	6.197	9	0	17
798	Cl.N#CCc1ccc(Nc2nccc(Nc3ccc(Oc4ccccc4)cc3)n2)cc1 [TCMDC-138577]	98	6.094	47	6	0
243	O=C(NCCCN1CCCCC1)c1cccc(Nc2nccc(Nc3ccc(Oc4ccccc4)cc3)n2)c1 [TCMDC-138605]	96	6.086	12	2	47
12	CN1CCN(c2ccc(Nc3ncc(Cl)c(Nc4cccnc4C(N)=O)n3)cc2)CC1.Cl [TCMDC-134164]	95	6.816	97	0	99
765	Cl.c1ccc(Oc2ccc(Nc3ccnc(Nc4ccc5cn[nH]c5c4)n3)cc2)cc1 [TCMDC-138574]	94	6.135	33	0	6
801	CN1CCN(Cc2cccc(Nc3nccc(Nc4ccc(Oc5ccccc5)cc4)n3)c2)CC1 [TCMDC-138614]	97	6.529	80	2	30
250	O=C(NCCN1CCCCC1)c1cccc(Nc2nccc(Nc3ccc(Oc4ccccc4)cc3)n2)c1 [TCMDC-138603]	99	6.563	86	0	50
180	O=C(NCCCN1CCOCC1)c1cccc(Nc2nccc(Nc3ccc(Oc4ccccc4)cc3)n2)c1 [TCMDC-138604]	98	6.116	22	0	34
94	O=C(NCCCN1CCCCC1)c1ccc(Nc2nccc(Nc3ccc(Oc4ccccc4)cc3)n2)cc1 [TCMDC-138609]	100	6.204	61	0	30
220	O=C(NCCN1CCC(c2ccncc2)CC1)c1cccc(Nc2nccc(Nc3ccc(Oc4ccccc4)cc3)n2)c1 [TCMDC-138607]	100	6.773	91	0	60

Structure (SMILES)	IC50 [1] [nM]	PCT_IHB_3D7 (P. falciparum 3D7 cells) [%]	pXC50_3D7 (P. falciparum 3D7 cells)	PCT_INHB_DD2 (DD2) [%]	PCT_INHIB_3D7_PFLDH (3D7 PFLDH) [%]	PCT_INHIB_HEPG2 (HepG2 cells) [%]
Cc1ccc(Nc2nc3cc(N(C)c4ccnc(Nc5cccc(CCS(C)(=O)=O)c5)n4)ccc3n2C)cc1.O=C(O)C(F)(F)F [TCMDC-138853]	160	99	6.469	73	4	78
CCOC(=O)c1cccc(NC(=O)Nc2cccc(-c3ncc(OCCCN)c4c3nc(-c3nonc3N)n4CC)c2)c1.O=C(O)C(F)(F)F [TCMDC-136205]	294	100	6.0485	98	2	16
Cc1ccc(Nc2nccc(N(C)c3ccc4c(c3)nc(NC(=O)Cc3ccc(Cl)c(Cl)c3)n4C)n2)cc1S(N)(=O)=O.O=C(O)C(F)(F)F [TCMDC-141965]	345	94	5.954	60	0	71
CCn1c(-c2nonc2N)nc2c(-c3ccc(CO)o3)ncc(OCCCN)c21.O=C(O)C(F)(F)F [TCMDC-133807]	51	93	5.866	97	0	0
O=C(O)C(F)(F)F.O=c1[nH]ccc2nc(N[C@@H]3CCNC3)nc(Nc3ccc4c(c3)S(=O)(=O)CC4)c12 [TCMDC-135044]	235	100	6.4233	99	0	0

— publication PMC4774911, “Biochemical Screening of Five Protein Kinases from Plasmodium falciparum against 14,000 Cell-Active Compounds” (PLoS ONE, 2016)
